The record followed here is US20250154169A1, “COMPOUNDS AND METHODS FOR MODULATING SPLICING” (REMIX THERAPEUTICS INC., priority 2021, published 2025).

One experiment has as its system SMN2 mRNA. Description: Splicing RT-qPCR gene panel, SMN2 canonical junction (CJ) mRNA. The note with it: Homo sapiens, Tables 4A/4B, read-out: SMN2 (IC50, decrease in CJ mRNA, gene panel). Format: cell-based, human. Summed up:
(§1)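 Cells (A673 in DMEM/10% FBS, K562 in IMDM/10% FBS) got compound for 24 h, top dose 10 uM, 11 points, 3-fold steps, DMSO ≤0.25%. Lysates went to RT-qPCR for the canonical exon-exon junction; ΔΔCt against housekeeper and DMSO gave RQ, then percentage response.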
A general note: In qPCR the cycle at which signal appears reflects the starting amount.

The subject of the next experiment is HTT mRNA. Put plainly: Splicing RT-qPCR gene panel, HTT canonical junction (CJ) mRNA. Format: cell-based, human. The note with it: Homo sapiens, Tables 4A/4B, read-out: HTT (IC50, decrease in CJ mRNA, gene panel). Summed up:
as §1

In a further experiment the test system is MYB. Put plainly: Protein abundance, HiBit-assay system (Promega), MYB. Format: cell-based. Particulars: Table 6; HiBiT-modified K562 cells, 24 hours. The source says:
In some embodiments, a compound of Formula (I) or (II) or a pharmaceutically acceptable salt thereof, e.g., as described herein, modulates the expression of a target protein (e.g., HTT or MYB) in a reference cell or sample. In an embodiment, a compound of Formula (I) or (II) or a pharmaceutically acceptable salt thereof, e.g., as described herein, increases the expression of a target protein (e.g., HTT or MYB) in a reference cell or sample. In an embodiment, a compound of Formula (I) or (II) or a pharmaceutically acceptable salt thereof, e.g., as described herein, decreases the expression of a target protein (e.g., HTT or MYB) in a reference cell or sample. The effect of an exemplary compound of Formula (I) or (II) on protein abundance may be measured using a standard assay for measuring protein abundance, such as the HiBit-assay system (Promega). In this assay, percent response for each respective cell line may be as calculated at each compound concentration as follows: % response=100*(S−PC)/(NC−PC). For the normalized response at each concentration, a four-parameter logistical regression may be fit to the data and the response may be interpolated at the 50% value to determine a concentration for protein abundance at 50% (IC50) an untreated control. In an embodiment, a compound of Formula (I) or (II) or a pharmaceutically acceptable salt thereof, e.g., as described herein, has a protein abundance response less than 100 nM. In an embodiment, a compound of Formula (I) or (II) or a pharmaceutically acceptable salt thereof, e.g., as described herein, has a protein abundance response between 100-1000 nM. In an embodiment, a compound of Formula (I) or (II) or a pharmaceutically acceptable salt thereof, e.g., as described herein, has a protein abundance response greater than 1000 nM. In an embodiment, a compound of Formula (I) or (II) or a pharmaceutically acceptable salt thereof, e.g., as described herein, has a protein abundance response greater than 10 uM. In an embodiment, a compound of Formula (I) or (II) or a pharmaceutically acceptable salt thereof, e.g., as described herein, modulates the protein abundance of a target protein by about 1%, 5%, 10%, 15%, 20%, 25%, 30%, 35%, 40%, 45%, 50%, 55%, 60%, 65%, 70%, 75%, 80%, 85%, 90%, 95%, 99% or more, e.g., compared with a reference compound.

The test system of a further experiment is K562 cells. Put plainly: Cell Titer Glo 2.0 cell viability assay, K562. It counts as cell-based. Particulars: Homo sapiens, 72 hours incubation.
The test system of another experiment is Target C mRNA. Put plainly: Splicing RT-qPCR gene panel, Target C canonical junction (CJ) mRNA. It counts as cell-based, human. The note with it: Homo sapiens, Tables 4A/4B, read-out: Target C (IC50, decrease in CJ mRNA, gene panel). Summed up: as §1
The subject of the next experiment is MYB mRNA. Put plainly: Splicing RT-qPCR assay, MYB canonical (CJ) and alternative (AJ) junction mRNA. It counts as cell-based, human. Particulars: Homo sapiens, Tables 4A/4B; canonical junction qPCR panel; read-out: MYB (IC50, decrease in CJ mRNA, gene panel). A digest of the protocol: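 A673 or K562 cells were treated 24 h at 37 °C with an 11-point 3-fold compound dilution series (top 10 uM, DMSO ≤0.25%). Lysates went to one-step RT-qPCR measuring canonical (CJ) and alternative-exon (AJ) junction transcripts, normalized to GAPDH, GUSB or PPIA.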

pIC50: −log10 of the molar value. Values joined by “and” are separate entries in the source; they are usually repeats but may differ in a detail not shown here. Equal values may be shown once. Bounds are passed on as bounds.

Procedure for K562 cells: Compounds described herein were screened for toxicity in K562 (human chronic myelogenous leukemia) and SH-SY5Y (human neuroblastoma) cells using a Cell Titer Glo 2.0 assay.
• Promega CellTiter-Glo® 2.0 Cell Viability Assay (cat #G9241) • Corning 384-well TC-treated microplates (cat #3570)
Cells were plated at 500 cells/well (K562 cells) in 45 μL of IMDM supplemented with 10% FBS in a 384-well opaque plate. Wells containing only medium were used as a blank control. Test compounds (e.g., compounds of Formula (I) or (II)) were first serially diluted in DMSO then diluted 1:100 with EIDM+10% FBS. The final concentration of DMSO was 0.1% in each well. The cells were incubated for 72 hours at 37° C. and 5% CO2 before assaying with Cell Titer Glo 2.0 reagent.

Consider `Cc1cn2cc(NC(=O)c3ccc(C4CCNCC4)c4oc(C)nc34)cc(F)c2n1` [Compound 187], for which the negative-log IC50 (pIC50) (usually the negative decadic logarithm of the IC50, by convention in mol/L) in the experiment with SMN2 mRNA was more than 7.00; in the experiment on HTT mRNA it was 6.00 to 7.00; in the experiment on MYB, 6.00 to 7.00 and > 7.00; in the experiment with Target C mRNA it was 5.00 to 6.00; in the experiment with MYB mRNA, 6.00 to 7.00. Besides, in the experiment with K562 cells, the GI50 (commonly the concentration that inhibits growth by half) lay within 100 to 1000 nM.
